Experimental data: publication PMC11684530 (ACS Omega, 2024)

Target: T1, COX-2 (cyclooxygenase-2) (Homo sapiens, UniProt P35354)
T1 sequence (P35354 18-604): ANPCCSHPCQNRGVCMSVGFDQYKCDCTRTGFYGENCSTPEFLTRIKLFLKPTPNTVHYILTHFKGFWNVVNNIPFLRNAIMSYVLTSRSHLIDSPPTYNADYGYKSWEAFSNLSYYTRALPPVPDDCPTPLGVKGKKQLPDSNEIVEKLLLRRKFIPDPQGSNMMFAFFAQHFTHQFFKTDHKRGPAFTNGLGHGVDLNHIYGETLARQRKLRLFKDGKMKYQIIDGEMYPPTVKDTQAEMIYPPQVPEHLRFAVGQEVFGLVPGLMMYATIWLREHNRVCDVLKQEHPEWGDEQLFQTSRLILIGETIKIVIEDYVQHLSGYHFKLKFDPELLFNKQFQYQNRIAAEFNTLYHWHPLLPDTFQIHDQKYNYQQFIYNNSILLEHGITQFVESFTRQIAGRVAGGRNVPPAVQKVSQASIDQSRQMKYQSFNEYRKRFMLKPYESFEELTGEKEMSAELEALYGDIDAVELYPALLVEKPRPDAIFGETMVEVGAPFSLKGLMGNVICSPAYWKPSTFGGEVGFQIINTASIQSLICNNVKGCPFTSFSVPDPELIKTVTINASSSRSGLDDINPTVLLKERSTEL
Assay: fluorometric COX-2 inhibitor screening kit
Type: biochemical

| IC50 | Compound |
| --- | --- |
| 9.63 µM | O=c1cc(-c2ccccc2)oc2cc(O)c(CCO)c(O)c12 [1a, 5,7-Dihydroxy-6-(2-hydroxyethyl)-2-phenyl-4H-chromen-4-one] |
| 18.5 µM | O=c1cc(-c2ccccc2)oc2cc(O)cc(O)c12 [chrysin] |
| 6.76 µM | CC(C)=CCc1c(O)cc(O)c2c(=O)cc(-c3ccccc3)oc12 [compound 8, 5,7-Dihydroxy-8-(3-methylbut-2-en-1-yl)-2-phenyl-4H-chromen-4-one] |
